The values that follow come from paper PMC7660916, “The Salmonella enterica serovar Typhimurium virulence factor STM3169 is a hexuronic acid binding protein component of a TRAP transporter” (Microbiology, 2020).

The test addresses STM3169 (Salmonella enterica, UniProt Q8ZM02). Kind of test: intrinsic fluorescence titration; supported by MST (KD […]) and thermal shift. The format is binding.

Sequence of STM3169 (Q8ZM02 entry or part of it): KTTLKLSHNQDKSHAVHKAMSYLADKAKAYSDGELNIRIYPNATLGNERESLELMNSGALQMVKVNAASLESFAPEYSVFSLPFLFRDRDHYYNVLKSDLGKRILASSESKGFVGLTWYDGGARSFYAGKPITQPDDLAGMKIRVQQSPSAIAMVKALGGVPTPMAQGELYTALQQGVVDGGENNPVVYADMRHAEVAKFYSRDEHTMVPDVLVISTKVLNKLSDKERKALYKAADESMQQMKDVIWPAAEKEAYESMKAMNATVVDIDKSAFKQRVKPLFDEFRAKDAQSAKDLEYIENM

As to `O=C(O)[C@H]1OC(O)[C@H](O)[C@@H](O)[C@@H]1O` (stereo partly drawn) [D-glucuronate], the Kd was 170 ± 77 nM.
